In paper PMC10247784, “Physiological activation of human and mouse bitter taste receptors by bile acids” (Communications Biology, 2023):

Target: T1, mouse Tas2r126 (Mus musculus, UniProt P59532)
T1 construct: expressed in transfected cells; host or cells: HEK293T-Gα16gust44
T1 sequence (P59532 1-308): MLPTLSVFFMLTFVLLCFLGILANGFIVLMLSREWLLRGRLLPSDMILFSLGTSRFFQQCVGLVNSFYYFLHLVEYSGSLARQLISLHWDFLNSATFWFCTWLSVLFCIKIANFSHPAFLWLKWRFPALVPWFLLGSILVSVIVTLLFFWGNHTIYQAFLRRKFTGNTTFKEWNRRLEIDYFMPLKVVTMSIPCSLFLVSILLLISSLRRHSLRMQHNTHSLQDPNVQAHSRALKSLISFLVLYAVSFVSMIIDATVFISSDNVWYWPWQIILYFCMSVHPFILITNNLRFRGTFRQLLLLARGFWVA
Experiment: Calcium imaging assay (FLIPR), HEK293T-Gα16gust44 cells transfected with mouse Tas2r126
Assay type: cell-based
Description: This set of bile acids was chosen because of their commercial availability in high purities, their diversity within the class of bile acids and their previous detection and quantitation in human blood. Stock solutions were prepared in DMSO.
As basal growth medium for the HEK293T-Gα16gust44 cell line[17],[59] served Dulbecco’s modified eagle medium (DMEM) (Thermo Fisher Scientific, Darmstadt, Germany) supplemented with 10 % fetal bovine serum (Sigma-Aldrich, Steinheim, Germany), 2 mM L-glutamine (Sigma-Aldrich, Steinheim, Germany), 100 units/ml penicillin (Sigma Aldrich, Steinheim, Germany) and 100 µg/ml streptomycin (Sigma Aldrich, Steinheim, Germany). Growth conditions were 37 °C, 5 % CO2 and saturated air-humidity[60].
HEK293T-Gα16gust44 cells were seeded on poly-D-lysine (10 µg/ml) coated 96-well plates to reach a confluence of 40-60 % the next day. For transient transfection 150 ng of plasmid DNA containing the receptor of interest and 0.3 µl lipofectamine 2000 (Thermo Fisher Scientific, Darmstadt, Germany) per well were used and transfection took place according to the manual of lipofectamine 2000. […] The empty vector DNA (mock) was transfected as negative control[14],[41].
Cells were loaded using the calcium-sensitive fluorescent dye Fluo-4-AM (Abcam, Cambridge, Great Britain) in the presence of 2.5 mM probenecid (Sigma-Aldrich, Steinheim, Germany) the day after transfection[13],[41]. 1 h after loading, cells were washed with C1 buffer using a BioTek Cell Washer, incubated in the dark for half an hour and washed again. For automated agonist application and measurement of fluorescence changes, a FLIPR^TETRA device (Molecular Devices, San José, United States) was used. Viability of cells was tested by application of 100 nM Somatostatin 14 (Bachem, Bubendorf, Switzerland)[42].
Measured data were negative control corrected by subtracting the signal of the mock-transfected cells and exported to Microsoft Excel using the FLIPR software ScreenWorks 4.2. In Microsoft Excel software, standardization of maximum fluorescence intensities to the basal fluorescence and normalization to the buffer-only control was done to calculate the relative fluorescence changes (ΔF/F).
Initial screening experiments performed in duplicate wells were confirmed by at least one replication and representative traces were selected for display. All dose-response relationships were determined by three independent experiments (biological replicates) performed in duplicates (technical replicates). Threshold concentrations, defined as lowest substance concentrations leading to statistically significant elevated fluorescence changes in receptor-transfected cells compared with empty vector-transfected cells, were determined using SigmaPlot with Student’s t-test to evaluate statistical significance (p < 0.01).

C[C@H](CCC(=O)O)[C@H]1CC[C@H]2[C@@H]3[C@H](O)C[C@@H]4C[C@H](O)CC[C@]4(C)[C@H]3C[C@H](O)[C@]12C [Cholic Acid, cholic acid] showed an RLU (Time 0 s) of 0 RLU, an RLU (Time 2 s) of 6.32 RLU and an RLU (Time 4 s) of -17.4742 RLU. It also gave an RLU (Time 6 s) of 5.446 RLU, an RLU (Time 8 s) of 10.1237 RLU and an RLU (Time 12 s) of 18.7423 RLU. The RLU (Time 14 s) was -3.953 RLU, the RLU (Time 16 s) was -7.647 RLU and the RLU (Time 18 s) was 11.4341 RLU. It also gave an RLU (Time 18.781 s) of -6.409 RLU, an RLU (Time 20.781 s) of -22.1196 RLU and an RLU (Time 22.781 s) of 57.6732 RLU. The RLU (Time 24.781 s) was 119.461 RLU, the RLU (Time 26.781 s) was 150.574 RLU and the RLU (Time 28.781 s) was 265.727 RLU. For the same compound, the RLU (Time 30.781 s) was 370.327 RLU, the RLU (Time 32.781 s) was 482.177 RLU and the RLU (Time 34.781 s) was 570.785 RLU. For the same compound, the RLU (Time 36.781 s) was 665.431 RLU, the RLU (Time 38.781 s) was 689.631 RLU and the RLU (Time 40.781 s) was 736.63 RLU. The RLU (Time 42.781 s) was 773.753 RLU, the RLU (Time 44.781 s) was 819.752 RLU and the RLU (Time 46.781 s) was 829.41 RLU. It also gave an RLU (Time 48.781 s) of 884.282 RLU, an RLU (Time 50.781 s) of 903.917 RLU and an RLU (Time 52.781 s) of 907.88 RLU. The RLU (Time 54.781 s) was 897.488 RLU, the RLU (Time 56.781 s) was 894.491 RLU and the RLU (Time 58.781 s) was 914.837 RLU. For the same compound, the RLU (Time 60.781 s) was 925.711 RLU, the RLU (Time 62.781 s) was 919.134 RLU and the RLU (Time 64.781 s) was 943.476 RLU. The RLU (Time 66.781 s) was 923.886 RLU, the RLU (Time 68.781 s) was 937.947 RLU and the RLU (Time 70.781 s) was 951.397 RLU. The RLU (Time 72.781 s) was 951.831 RLU, the RLU (Time 74.781 s) was 959.178 RLU and the RLU (Time 76.781 s) was 961.002 RLU. For the same compound, the RLU (Time 78.781 s) was 948.826 RLU, the RLU (Time 80.781 s) was 939.325 RLU and the RLU (Time 82.781 s) was 951.223 RLU. The RLU (Time 84.781 s) was 936.985 RLU, the RLU (Time 86.781 s) was 922.709 RLU and the RLU (Time 88.781 s) was 911.664 RLU. The RLU (Time 90.781 s) was 942.653 RLU, the RLU (Time 92.781 s) was 908.427 RLU and the RLU (Time 94.781 s) was 912.682 RLU. For the same compound, the RLU (Time 96.781 s) was 907.486 RLU, the RLU (Time 98.781 s) was 899.352 RLU and the RLU (Time 100.781 s) was 901.766 RLU. For the same compound, the RLU (Time 102.781 s) was 898.622 RLU, the RLU (Time 104.781 s) was 885.627 RLU and the RLU (Time 106.781 s) was 885.616 RLU. For the same compound, the RLU (Time 108.781 s) was 859.767 RLU, the RLU (Time 110.781 s) was 849.777 RLU and the RLU (Time 112.781 s) was 824.416 RLU. For the same compound, the RLU (Time 114.781 s) was 805.273 RLU, the RLU (Time 116.781 s) was 784.094 RLU and the RLU (Time 118.781 s) was 781.757 RLU. For the same compound, the RLU (Time 120.781 s) was 784.883 RLU, the RLU (Time 122.781 s) was 777.647 RLU and the RLU (Time 124.781 s) was 774.835 RLU. The RLU (Time 126.781 s) was 752.144 RLU, the RLU (Time 128.781 s) was 755.376 RLU and the RLU (Time 130.781 s) was 741.203 RLU. For the same compound, the RLU (Time 132.781 s) was 735.986 RLU, the RLU (Time 134.781 s) was 705.295 RLU and the RLU (Time 136.781 s) was 715.373 RLU. It also gave an RLU (Time 137.563 s) of 694.021 RLU, an RLU (Time 143.563 s) of 674.141 RLU and an RLU (Time 149.563 s) of 648.129 RLU. It also gave an RLU (Time 155.563 s) of 630.623 RLU, an RLU (Time 161.563 s) of 621.371 RLU and an RLU (Time 167.563 s) of 569.451 RLU. The RLU (Time 173.563 s) was 563.656 RLU, the RLU (Time 179.563 s) was 519.424 RLU and the RLU (Time 185.563 s) was 518.545 RLU. The RLU (Time 191.563 s) was 496.035 RLU, the RLU (Time 197.563 s) was 519.073 RLU and the RLU (Time 203.563 s) was 511.704 RLU. It also gave an RLU (Time 209.563 s) of 507.09 RLU, an RLU (Time 215.563 s) of 499.344 RLU and an RLU (Time 221.563 s) of 510.025 RLU. For the same compound, the RLU (Time 227.563 s) was 524.879 RLU, the RLU (Time 233.563 s) was 522.75 RLU and the RLU (Time 239.563 s) was 547.672 RLU. For the same compound, the RLU (Time 245.563 s) was 498.436 RLU, the RLU (Time 293.563 s) was 489.083 RLU and the RLU (Time 299.563 s) was 473.554 RLU. The RLU (Time 305.563 s) was 449.101 RLU, the RLU (Time 311.563 s) was 467.667 RLU and the RLU (Time 317.563 s) was 473.372 RLU. The RLU (Time 323.563 s) was 461.769 RLU, the RLU (Time 329.563 s) was 454.066 RLU and the RLU (Time 335.563 s) was 446.164 RLU. The RLU (Time 341.563 s) was 461.362 RLU, the RLU (Time 347.563 s) was 456.539 RLU and the RLU (Time 353.563 s) was 466.548 RLU. The RLU (Time 359.563 s) was 455.13 RLU and the “Activation threshold concentration Tas2r126” value (p < 0.01 vs empty vector) was 100 µM.
